Measured values reported in patent US9179694B2, “Method and composition for enhancing milk production and milk component concentrations” (PURINA ANIMAL NUTRITION LLC, priority 2003, dated 2015).
Marks after values point to notes of the source that are not given here.

Assay: Fat content of produced milk in sorbitol feeding trials
Assay type: in vivo, Holstein cows
Conditions: for Fat in Produced Milk: Pre-Partum Trial #1 (75/0/0 g/day in wk −3..−1/+1..+4/+5..+8)
Method: To determine the weight percent total fat, wet basis, in a sample, the actual weight of fat in the sample is determined in accordance with Method #974.09 (33.7.18) of Official Methods of Analysis, Association of Official Analytical Chemists (AOAC) (16th Ed., 1995). The weight percent total fat, wet basis, is then calculated by dividing the actual weight of fat in the sample by the actual weight of the sample. Each cow of each of the six different trials (Control Trial #1, Control Trial #2, Pre-Partum Trial #1, Pre-Partum Trial #2, Pre/Post Trial #1, and Pre/Post Trial #2) was milked three times daily and the weight of produced milk by each cow was recorded at each milking. The milk from each cow was sampled once per week (⅓ of the sample volume from each of the three milkings occurring on the weekly milk sampling day) and was analyzed for true protein, total fat, lactose, and total solids, as detailed in the property determination and characterization techniques presented above. Additionally, samples of blood were periodically obtained from each cow during the four trials (Control Trial 2, Pre-Partum Trial #2, Pre/Post Trial #1, and Pre/Post Trial #2) encompassed in Example Two and were analyzed for non-esterified fatty acid (NEFA) content as detailed in the property determination and characterization techniques presented above. No NEFA analysis was conducted on the cows employed in Control Trial #1 or Pre-Partum Trial #1 that are the subject of Example One. Example One includes Control Trial #1 and Pre-Partum Trial #1. Both primiparious cows and multiparious cows were included in Control Trial #1 and Pre-Partum Trial #1. Five primiparious cows and fifteen multiparious cows were included in Control Trial #1; likewise, five primiparious cows and fifteen multiparious cows were included in Pre-Partum Trial #1. All cows included in Control Trial #1 and Pre-Partum Trial #1 were Holsteins. Example Two includes Control Trial #2, Pre-Partum Trial #2, Pre/Post Trial #1, and Pre/Post Trial #2. Only multiparious, Holstein cows were included in Control Trial #2, […], Pre/Post Trial #1, and Pre/Post Trial #2. Eighteen multiparious cows were included in both Control Trial #2 and Pre-Partum Trial #2, while sixteen multiparious cows were included in Pre/Post Trial #1 and seventeen multiparious cows were included in Pre/Post Trial #2.

OC[C@@H](O)[C@@H](O)[C@H](O)[C@@H](O)CO [sorbitol]
Fat in Produced Milk (multiparious cows, weeks +1 through +8): 3.50 wt % | Fat in Produced Milk (primiparious cows, weeks +1 through +8): 4.2 wt % | increase in fat concentration in the produced milk (Pre-Partum Trial #1 (75 g/day wk −3..−1 only) versus Control Trial #1, primiparious cows, weeks +1 through +8): 11.7% | Fat Content of Produced Milk (Pre-Partum Trial #2 (75/0/100 g/day in wk −3..−1/+1..+4/+5..+8), multiparious cows, week +1): 4.91^a weight % | Fat Content of Produced Milk (Pre-Partum Trial #2 (75/0/100 g/day in wk −3..−1/+1..+4/+5..+8), multiparious cows, week +2): 4.50 weight % | Fat Content of Produced Milk (Pre-Partum Trial #2 (75/0/100 g/day in wk −3..−1/+1..+4/+5..+8), multiparious cows, week +3): 4.09 weight % | Fat Content of Produced Milk (Pre-Partum Trial #2 (75/0/100 g/day in wk −3..−1/+1..+4/+5..+8), multiparious cows, week +4): 3.41^a weight % | Fat Content of Produced Milk (Pre-Partum Trial #2 (75/0/100 g/day in wk −3..−1/+1..+4/+5..+8), multiparious cows, week +5): 3.35 weight % | Fat Content of Produced Milk (Pre-Partum Trial #2 (75/0/100 g/day in wk −3..−1/+1..+4/+5..+8), multiparious cows, week +6): 3.17^a weight % | Fat Content of Produced Milk (Pre-Partum Trial #2 (75/0/100 g/day in wk −3..−1/+1..+4/+5..+8), multiparious cows, week +7): 3.29 weight % | Fat Content of Produced Milk (Pre-Partum Trial #2 (75/0/100 g/day in wk −3..−1/+1..+4/+5..+8), multiparious cows, week +8): 3.34^ab weight % | Fat Content of Produced Milk (Pre-Partum Trial #2 (75/0/100 g/day in wk −3..−1/+1..+4/+5..+8), multiparious cows, weeks +1 through +4): 4.23^a weight % | Fat Content of Produced Milk (Pre-Partum Trial #2 (75/0/100 g/day in wk −3..−1/+1..+4/+5..+8), multiparious cows, weeks +1 through +8): 3.75^a weight % | Fat Content of Produced Milk (Pre-Partum Trial #2 (75/0/100 g/day in wk −3..−1/+1..+4/+5..+8), multiparious cows, weeks +5 through +8): 3.27^ab weight % | Fat Content of Produced Milk (Pre/Post Trial #1 (150/125/100 g/day in wk −3..−1/+1..+4/+5..+8), multiparious cows, week +1): 5.49^ab weight % | Fat Content of Produced Milk (Pre/Post Trial #1 (150/125/100 g/day in wk −3..−1/+1..+4/+5..+8), multiparious cows, week +1, two-trial comparison with Control Trial #2 (Table 23)): 5.49 weight % | Fat Content of Produced Milk (Pre/Post Trial #1 (150/125/100 g/day in wk −3..−1/+1..+4/+5..+8), multiparious cows, week +2): 4.41 weight % | Fat Content of Produced Milk (Pre/Post Trial #1 (150/125/100 g/day in wk −3..−1/+1..+4/+5..+8), multiparious cows, week +2, two-trial comparison with Control Trial #2 (Table 23)): 4.41 weight % | Fat Content of Produced Milk (Pre/Post Trial #1 (150/125/100 g/day in wk −3..−1/+1..+4/+5..+8), multiparious cows, week +3): 4.22 weight % | Fat Content of Produced Milk (Pre/Post Trial #1 (150/125/100 g/day in wk −3..−1/+1..+4/+5..+8), multiparious cows, week +3, two-trial comparison with Control Trial #2 (Table 23)): 4.22 weight % | Fat Content of Produced Milk (Pre/Post Trial #1 (150/125/100 g/day in wk −3..−1/+1..+4/+5..+8), multiparious cows, week +4): 4.01^b weight % | Fat Content of Produced Milk (Pre/Post Trial #1 (150/125/100 g/day in wk −3..−1/+1..+4/+5..+8), multiparious cows, week +4, two-trial comparison with Control Trial #2 (Table 23)): 4.01 weight % | Fat Content of Produced Milk (Pre/Post Trial #1 (150/125/100 g/day in wk −3..−1/+1..+4/+5..+8), multiparious cows, week +5): 3.71 weight % | Fat Content of Produced Milk (Pre/Post Trial #1 (150/125/100 g/day in wk −3..−1/+1..+4/+5..+8), multiparious cows, week +5, two-trial comparison with Control Trial #2 (Table 23)): 3.71 weight % | Fat Content of Produced Milk (Pre/Post Trial #1 (150/125/100 g/day in wk −3..−1/+1..+4/+5..+8), multiparious cows, week +6): 3.69^b weight % | Fat Content of Produced Milk (Pre/Post Trial #1 (150/125/100 g/day in wk −3..−1/+1..+4/+5..+8), multiparious cows, week +6, two-trial comparison with Control Trial #2 (Table 23)): 3.69 weight % | Fat Content of Produced Milk (Pre/Post Trial #1 (150/125/100 g/day in wk −3..−1/+1..+4/+5..+8), multiparious cows, week +7): 3.45 weight % | Fat Content of Produced Milk (Pre/Post Trial #1 (150/125/100 g/day in wk −3..−1/+1..+4/+5..+8), multiparious cows, week +7, two-trial comparison with Control Trial #2 (Table 23)): 3.45 weight % | Fat Content of Produced Milk (Pre/Post Trial #1 (150/125/100 g/day in wk −3..−1/+1..+4/+5..+8), multiparious cows, week +8): 3.68^b weight % | Fat Content of Produced Milk (Pre/Post Trial #1 (150/125/100 g/day in wk −3..−1/+1..+4/+5..+8), multiparious cows, week +8, two-trial comparison with Control Trial #2 (Table 23)): 3.68 weight % | Fat Content of Produced Milk (Pre/Post Trial #1 (150/125/100 g/day in wk −3..−1/+1..+4/+5..+8), multiparious cows, weeks +1 through +4): 4.53^ab weight % | Fat Content of Produced Milk (Pre/Post Trial #1 (150/125/100 g/day in wk −3..−1/+1..+4/+5..+8), multiparious cows, weeks +1 through +4, two-trial comparison with Control Trial #2 (Table 23)): 4.53 weight % | Fat Content of Produced Milk (Pre/Post Trial #1 (150/125/100 g/day in wk −3..−1/+1..+4/+5..+8), multiparious cows, weeks +1 through +8): 4.09^ab weight % | Fat Content of Produced Milk (Pre/Post Trial #1 (150/125/100 g/day in wk −3..−1/+1..+4/+5..+8), multiparious cows, weeks +1 through +8, two-trial comparison with Control Trial #2 (Table 23)): 4.09 weight % | Fat Content of Produced Milk (Pre/Post Trial #1 (150/125/100 g/day in wk −3..−1/+1..+4/+5..+8), multiparious cows, weeks +5 through +8): 3.63^b weight % | Fat Content of Produced Milk (Pre/Post Trial #1 (150/125/100 g/day in wk −3..−1/+1..+4/+5..+8), multiparious cows, weeks +5 through +8, two-trial comparison with Control Trial #2 (Table 23)): 3.63 weight % | increase in fat concentration in milk (Pre/Post Trial #1 (150/125/100 g/day) versus Control Trial #2, multiparious cows, weeks +1 through +8 (Table 23)): 7.3% | increase in fat concentration in milk (Pre/Post Trial #1 (150/125/100 g/day) versus Control Trial #2, multiparious cows, weeks +5 through +8 (Table 23)): 13.8% | greater fat concentration in milk (Pre/Post Trial #1 (150/125/100 g/day) versus Pre/Post Trial #2 (75/75/100 g/day), multiparious cows, week +8): 17.2% | Fat Content of Produced Milk (Pre/Post Trial #2 (75/75/100 g/day in wk −3..−1/+1..+4/+5..+8), multiparious cows, week +1): 6.23^b weight % | Fat Content of Produced Milk (Pre/Post Trial #2 (75/75/100 g/day in wk −3..−1/+1..+4/+5..+8), multiparious cows, week +2): 4.73 weight % | Fat Content of Produced Milk (Pre/Post Trial #2 (75/75/100 g/day in wk −3..−1/+1..+4/+5..+8), multiparious cows, week +3): 4.21 weight % | Fat Content of Produced Milk (Pre/Post Trial #2 (75/75/100 g/day in wk −3..−1/+1..+4/+5..+8), multiparious cows, week +4): 3.87^b weight % | Fat Content of Produced Milk (Pre/Post Trial #2 (75/75/100 g/day in wk −3..−1/+1..+4/+5..+8), multiparious cows, week +5): 3.89 weight % | Fat Content of Produced Milk (Pre/Post Trial #2 (75/75/100 g/day in wk −3..−1/+1..+4/+5..+8), multiparious cows, week +6): 3.48^ab weight % | Fat Content of Produced Milk (Pre/Post Trial #2 (75/75/100 g/day in wk −3..−1/+1..+4/+5..+8), multiparious cows, week +7): 3.47 weight % | Fat Content of Produced Milk (Pre/Post Trial #2 (75/75/100 g/day in wk −3..−1/+1..+4/+5..+8), multiparious cows, week +8): 3.14^a weight % | Fat Content of Produced Milk (Pre/Post Trial #2 (75/75/100 g/day in wk −3..−1/+1..+4/+5..+8), multiparious cows, weeks +1 through +4): 4.79^b weight % | Fat Content of Produced Milk (Pre/Post Trial #2 (75/75/100 g/day in wk −3..−1/+1..+4/+5..+8), multiparious cows, weeks +1 through +8): 4.13^b weight % | Fat Content of Produced Milk (Pre/Post Trial #2 (75/75/100 g/day in wk −3..−1/+1..+4/+5..+8), multiparious cows, weeks +5 through +8): 3.43^ab weight % | greater fat concentration in milk (Pre/Post Trial #2 (75/75/100 g/day) versus Pre-Partum Trial #2 (75/0/100 g/day), multiparious cows, weeks +1 through +4): 13.24% | greater fat concentration in milk (Pre/Post Trial #2 (75/75/100 g/day) versus Pre-Partum Trial #2 (75/0/100 g/day), multiparious cows, weeks +1 through +8): 10.1% | increase in fat concentration in milk (average of means of Pre-Partum Trial #2, Pre/Post Trial #1 and Pre/Post Trial #2 versus Control Trial #2, multiparious cows, weeks +1 through +8): 4.7% | increase in fat concentration in milk (average of means of Pre-Partum Trial #2, Pre/Post Trial #1 and Pre/Post Trial #2 versus Control Trial #2, multiparious cows, weeks +5 through +8): 7.9%
